US10351575B2, “Bicyclic urea, thiourea, guanidine and cyanoguanidine compounds useful for the treatment of pain” (Array BioPharma Inc., priority 2012, dated 2019)

Target: His-tagged recombinant human TrkA (Homo sapiens (Human), UniProt P04629)
Test: TrkA LanthaScreen Eu Kinase Binding Assay
Settings: averaged IC50; TR-FRET binding, 60 min, 22° C.; read-out: TrkA Enzyme IC50
Summary of the method: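 Three-fold compound dilutions (2% DMSO final) were incubated 60 min at 22° C. with 5 nM His-TrkA cytoplasmic domain, tracer 236 (4 nM), biotinylated anti-His (2 nM) and europium streptavidin (2 nM) in MOPS pH 7.5 buffer. Emission ratio 665/615 gave percent of control; four-parameter fit yielded IC50.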

Chain of His-tagged recombinant human TrkA (P04629 440-796): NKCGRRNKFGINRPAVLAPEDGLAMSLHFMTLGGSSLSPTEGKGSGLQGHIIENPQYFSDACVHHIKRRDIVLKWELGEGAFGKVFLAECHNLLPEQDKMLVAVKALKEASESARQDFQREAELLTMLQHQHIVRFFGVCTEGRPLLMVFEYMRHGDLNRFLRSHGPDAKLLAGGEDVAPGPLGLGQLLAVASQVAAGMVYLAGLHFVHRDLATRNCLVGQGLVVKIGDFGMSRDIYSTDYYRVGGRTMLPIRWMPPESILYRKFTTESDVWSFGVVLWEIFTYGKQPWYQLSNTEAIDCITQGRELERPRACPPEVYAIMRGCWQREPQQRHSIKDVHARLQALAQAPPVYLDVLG

Which IC50 does the source give for `Cc1c(OC[C@H]2CN(C(=O)OC(C)(C)C)CCO2)nn(-c2ccccc2)c1NC(=O)N[C@@H]1c2ccccc2C(C)(C)C[C@H]1O` [Example 143, (R)-tert-butyl 2-(((5-(3-(trans-2-hydroxy-4,4-dimethyl-1,2,3,4-tetrahydronaphthalen-1-yl)ureido)-4-methyl-1-phenyl-1H-pyrazol-3-yl)oxy)methyl)morpholine-4-carboxylate] here?
Its IC50 is under 100 nM.

For `COc1nn(-c2ccccc2)c(NC(=O)N[C@@H]2c3ccccc3C(C)(C)C[C@H]2O)c1C` [Example 144, 1-((1R,2R)-2-hydroxy-4,4-dimethyl-1,2,3,4-tetrahydronaphthalen-1-yl)-3-(3-methoxy-4-methyl-1-phenyl-1H-pyrazol-5-yl)urea], which IC50 is on record?
The IC50 was under 100 nM.

How did the IC50 turn out when `Cn1nc(-c2ccccc2)cc1NC(=O)N[C@@H]1c2ccccc2C(C)(C)C[C@H]1O` [Example 145, 1-((1R,2R)-2-hydroxy-4,4-dimethyl-1,2,3,4-tetrahydronaphthalen-1-yl)-3-(1-methyl-3-phenyl-1H-pyrazol-5-yl)urea] was run?
Its IC50 is 100 to 1000 nM.

`CCOc1nn(-c2ccccc2)c(NC(=O)N[C@@H]2c3ccccc3C(C)(C)C[C@H]2O)c1C` [Example 146, 1-(3-ethoxy-4-methyl-1-phenyl-1H-pyrazol-5-yl)-3-((1R,2R)-2-hydroxy-4,4-dimethyl-1,2,3,4-tetrahydronaphthalen-1-yl)urea] was tested. Which IC50 did it give?
Its IC50 is under 100 nM.

`COCCOc1nn(-c2ccccc2)c(NC(=O)N[C@@H]2c3ccccc3C(C)(C)C[C@H]2O)c1C` [Example 147, 1-((1R,2R)-2-hydroxy-4,4-dimethyl-1,2,3,4-tetrahydronaphthalen-1-yl)-3-(3-(2-methoxyethoxy)-4-methyl-1-phenyl-1H-pyrazol-5-yl)urea] was tested. Which IC50 did it give?
Its IC50 is under 100 nM.

With `Cc1c(CCO)nn(-c2ccccc2)c1NC(=O)N[C@@H]1c2ccccc2C(C)(C)C[C@H]1O` [Example 148, 1-((1R,2R)-2-hydroxy-4,4-dimethyl-1,2,3,4-tetrahydronaphthalen-1-yl)-3-(3-(2-hydroxyethyl)-4-methyl-1-phenyl-1H-pyrazol-5-yl)urea] as the compound, how does the IC50 read?
Its IC50 is under 100 nM.

With `Cc1c(OCCO)nn(-c2ccccc2)c1NC(=O)N[C@@H]1c2ccccc2C(C)(C)C[C@H]1O` [Example 149, 1-((1R,2R)-2-hydroxy-4,4-dimethyl-1,2,3,4-tetrahydronaphthalen-1-yl)-3-(3-(2-hydroxyethoxy)-4-methyl-1-phenyl-1H-pyrazol-5-yl)urea] as the compound, how does the IC50 read?
The IC50 was under 100 nM.

How did the IC50 turn out when `Cc1c(OC[C@H]2CNCCO2)nn(-c2ccccc2)c1NC(=O)N[C@@H]1c2ccccc2C(C)(C)C[C@H]1O` [Example 150, 1-((1R,2R)-2-hydroxy-4,4-dimethyl-1,2,3,4-tetrahydronaphthalen-1-yl)-3-(4-methyl-3-((R)-morpholin-2-ylmethoxy)-1-phenyl-1H-pyrazol-5-yl)urea] was run?
The IC50 was under 100 nM.

For `Cc1c(OC[C@H]2CN(C(C)C)CCO2)nn(-c2ccccc2)c1NC(=O)N[C@@H]1c2ccccc2C(C)(C)C[C@H]1O` [Example 151, 1-((1R,2R)-2-hydroxy-4,4-dimethyl-1,2,3,4-tetrahydronaphthalen-1-yl)-3-(3-(((R)-4-isopropylmorpholin-2-yl)methoxy)-4-methyl-1-phenyl-1H-pyrazol-5-yl)urea], which IC50 is on record?
The IC50 was under 100 nM.

For `COc1nn(-c2ccccc2)c(NC(=O)N[C@@H]2c3ccccc3C(C)(C)[C@@H](OC)[C@H]2O)c1C` [Example 153, 1-((r-1,t-2,t-3)-2-hydroxy-3-methoxy-4,4-dimethyl 1,2,3,4-tetrahydronaphthalen-1-yl)-3-(3-methoxy-4-methyl-1-phenyl-1H-pyrazol-5-yl)urea], which IC50 is on record?
Its IC50 is under 100 nM.

`CO[C@H]1[C@@H](O)[C@H](NC(=O)Nc2c(C)c(-c3ccc(=O)n(C)c3)nn2-c2ccccc2)c2ccccc2C1(C)C` [Example 154, 1-((r-1,t-2,t-3)-2-hydroxy-3-methoxy-4,4-dimethyl-1,2,3,4-tetrahydronaphthalen-1-yl)-3-(4-methyl-3-(1-methyl-6-oxo-1,6-dihydropyridin-3-yl)-1-phenyl-1H-pyrazol-5-yl)urea] was tested. Which IC50 did it give?
Its IC50 is under 100 nM.

With `CO[C@H]1[C@@H](O)[C@H](NC(=O)Nc2c(C)c(-c3cnc(C)nc3)nn2-c2ccccc2)c2ccccc2C1(C)C` [Example 155, 1-((r-1,t-2,t-3)-2-hydroxy-3-methoxy-4,4-dimethyl-1,2,3,4-tetrahydronaphthalen-1-yl)-3-(4-methyl-3-(2-methylpyrimidin-5-yl)-1-phenyl-1H-pyrazol-5-yl)urea] as the compound, how does the IC50 read?
The IC50 was under 100 nM.

For `CNC(=O)c1nn(-c2ccccc2)c(NC(=O)N[C@@H]2c3ccccc3C(C)(C)[C@H](OC)[C@H]2O)c1C` [Example 156, 5-(3-((r-1,t-2,c-3)-2-hydroxy-3-methoxy-4,4-dimethyl-1,2,3,4-tetrahydronaphthalen-1-yl)ureido)-N,4-dimethyl-1-phenyl-1H-pyrazole-3-carboxamide], which IC50 is on record?
The IC50 was under 100 nM.

Which IC50 does the source give for `CO[C@@H]1[C@@H](O)[C@H](NC(=O)Nc2c(C)c(-c3cnn(C)c3)nn2-c2ccccc2)c2ccccc2C1(C)C` [Example 157, 1-(1′,4-dimethyl-1-phenyl-1H,1′H-[3,4′-bipyrazol]-5-yl)-3-((r-1,t-2,c-3)-2-hydroxy-3-methoxy-4,4-dimethyl-1,2,3,4-tetrahydronaphthalen-1-yl)urea] here?
The IC50 was under 100 nM.

For `CO[C@@H]1[C@@H](O)[C@H](NC(=O)Nc2c(C)c(OCC3CCN(C)CC3)nn2-c2ccccc2)c2ccccc2C1(C)C` [Example 158, 1-((r-1,t-2,c-3)-2-hydroxy-3-methoxy-4,4-dimethyl-1,2,3,4-tetrahydronaphthalen-1-yl)-3-(4-methyl-3-((1-methylpiperidin-4-yl)methoxy)-1-phenyl-1H-pyrazol-5-yl)urea], which IC50 is on record?
The IC50 was under 100 nM.
